From patent US11530222B2, “Substituted pyrrolopyrimidine and pyrazolopyrimidine as Bruton's tyrosine kinase (BTK) degraders” (ACCUTAR BIOTECHNOLOGY INC., priority 2021, dated 2022)

Legend:
Assay type in all cases: cell-based
[1] = molecular target: T1, BTK (Homo sapiens, UniProt Q06187); assay: BTK degradative activity in a RAMOS cell line (Western blot); details: 6 hours after administration, read-out: RAMOS BTK Degradation DC50
T1 construct: BTK Degradative Activity of Exemplary Compounds of the Present Disclosure in a RAMOS Cell Line; host or cells: RAMOS
T1 sequence (Q06187 whole entry): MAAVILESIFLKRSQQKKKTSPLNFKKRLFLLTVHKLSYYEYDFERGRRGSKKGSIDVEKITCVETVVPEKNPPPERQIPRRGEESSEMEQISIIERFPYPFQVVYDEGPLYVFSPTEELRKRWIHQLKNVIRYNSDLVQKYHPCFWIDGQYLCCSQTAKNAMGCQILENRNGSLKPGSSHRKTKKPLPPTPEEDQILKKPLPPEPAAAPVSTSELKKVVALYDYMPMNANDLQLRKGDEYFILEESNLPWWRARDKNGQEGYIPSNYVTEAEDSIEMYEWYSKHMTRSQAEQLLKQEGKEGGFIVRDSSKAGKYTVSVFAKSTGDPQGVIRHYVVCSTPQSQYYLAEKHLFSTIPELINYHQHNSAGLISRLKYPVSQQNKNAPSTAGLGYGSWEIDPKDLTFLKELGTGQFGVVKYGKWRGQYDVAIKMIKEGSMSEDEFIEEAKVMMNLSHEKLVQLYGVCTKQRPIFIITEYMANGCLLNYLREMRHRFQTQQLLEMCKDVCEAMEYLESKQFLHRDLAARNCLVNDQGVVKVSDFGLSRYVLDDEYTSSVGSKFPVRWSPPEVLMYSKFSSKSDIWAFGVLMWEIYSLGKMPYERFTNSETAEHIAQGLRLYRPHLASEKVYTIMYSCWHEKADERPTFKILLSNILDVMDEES
Summary of the method: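 Ramos cells in RPMI with 10% FBS were treated with compound in DMSO at various concentrations for 6 h at 37 °C. BTK was measured by Western blot against GAPDH with infrared fluorescent detection and band quantification. DC50 is the concentration at which 50% of BTK is degraded.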

[2] = tested on: REC-1 cells; assay: Growth inhibitory activity in BTK-dependent REC-1 cell line (CellTiter-Glo); details: Homo sapiens, Rec1, 144 h, 6 days after administration, read-out: REC1 Cellular Grwoth Inhibition IC50
Protocol: (§1) REC-1 (ATCC) and REC-1 BTK^C481S cells were plated in 96-well plates at 8,000 cells/well in 90 ul of RPMI growth medium containing 10% heat-inactivated FBS and 1× Penicillin Streptomycin, and then incubated at 37° C. overnight. The following day, the test compound was administered to the cells by using 10× compound stock solution prepared in growth medium at various concentrations. After administration of the compound, cells were then incubated at 37° C. for 6 days. Before CellTiter-Glo assay, the plates were equilibrated at room temperature for approximately 10 minutes. 100 ul of CellTiter-Glo® Reagent (Promega) was added to each well. The plates were then incubated at room temperature for 10 minutes and luminescence was recorded by EnSpire plate reader (PerkinElmer).
(§2) The GI50 values (i.e., the concentration of test compound at which 50% of cell growth are inhibited) were calculated. A designation of “A” corresponds to a […] value less than 20 nM. A designation of “B” corresponds to a […] value greater than or equal to 20 nM and less than 200 nM. A designation of “C” corresponds to a […] value greater than or equal to 200 nM.

[3] = tested on: REC-1 BTK^C481S cells; assay: Growth inhibitory activity in REC-1 BTK^C481S cell line (CellTiter-Glo); details: Homo sapiens, Rec1, 144 h, 6 days after administration, read-out: REC1 BTK^C481S Cellular Grwoth Inhibition IC50
Protocol: The BTK gene in REC-1 cell line (ATCC) was edited by the CRISPR-Cas9 technology to create a C to S point mutation at residue 481 of BTK protein. For gene editing, first, gRNA complex was prepared with Alt-R CRISPR-Cas9 tracrRNA and crRNA BTK^C481S (5′-[…]-3′) (IDT-Integrated DNA Technologies), and then BTK^C481S ribonucleoprotein (RNP) complex was prepared with gRNA complex and Alt-R S.p. Cas9 Nuclease V3 (IDT-Integrated DNA Technologies). Next, 1×10^5 REC-1 cells were electroporated with BTK^C481S RNP complex, Alt-R Cas9 Electroporation Enhancer and BTKC481S Ultramer DNA Oligo (5′-[…] […]-3′) (IDT-Integrated DNA Technologies) using Neon Transfection System (Thermo Fisher) under the condition of 1400 V, 10 ms, 3 pulses. Cells were then plated in a 96-well plate for 10 days and selected with 10 nM Ibrutinib for 5 passages. C481S mutation of BTK was further validated by Sanger Sequencing using gDNA extracted from these cells.
as §1, §2

SMILES	DC50 [1] [nM]	IC50 [2] [nM]	IC50 [3] [nM]
COc1ccc(F)cc1C(=O)NCc1ccc(-c2nn(-c3ccc(N4CCC(CN5CCN(c6ccc7c(c6)CN([C@H]6CCC(=O)NC6=O)C7=O)CC5)CC4)c(F)c3)c3ncnc(N)c23)cc1 [Compound 49, (S)—N-(4-(4-amino-1-(4-(4-((4-(2-(2,6-dioxopiperidin-3-yl)-1-oxoisoindolin-5-yl)piperazin-1-yl)methyl)piperidin-1-yl)-3-fluorophenyl)-1H-pyrazolo[3,4-d]pyrimidin-3-yl)benzyl)-5-fluoro-2-methoxybenzamide]	< 10	< 20	< 20
COc1ccc(F)cc1C(=O)NCc1ccc(-c2nn(-c3ccc(N4CCC(CN5CCN(c6ccc7c(c6)CN([C@H]6CCC(=O)NC6=O)C7=O)CC5)CC4)nc3)c3ncnc(N)c23)cc1 [Compound 59, (S)—N-(4-(4-amino-1-(6-(4-((4-(2-(2,6-dioxopiperidin-3-yl)-1-oxoisoindolin-5-yl)piperazin-1-yl)methyl)piperidin-1-yl)pyridin-3-yl)-1H-pyrazolo[3,4-d]pyrimidin-3-yl)benzyl)-5-fluoro-2-methoxybenzamide]		< 20	< 20
COc1ccc(F)cc1C(=O)NCc1ccc(-c2nn(-c3ccc(N4CCC(CN5CCN(c6ccc7c(c6)CN([C@H]6CCC(=O)NC6=O)C7=O)CC5)C4)c(F)c3)c3ncnc(N)c23)cc1 (stereo partly drawn) [Compound 65, N-(4-(4-amino-1-(4-(3-((4-(2-((S)-2,6-dioxopiperidin-3-yl)-1-oxoisoindolin-5-yl)piperazin-1-yl)methyl)pyrrolidin-1-yl)-3-fluorophenyl)-1H-pyrazolo[3,4-d]pyrimidin-3-yl)benzyl)-5-fluoro-2-methoxybenzamide]	< 10	< 20	< 20
COc1ccc(F)cc1C(=O)NCc1ccc(-c2nn(-c3ccc(N4CCC(CN5CCN(c6ccc7c(c6)CN([C@H]6CCC(=O)NC6=O)C7=O)CC5)C4)nc3)c3ncnc(N)c23)cc1 (stereo partly drawn) [Compound 66, N-(4-(4-amino-1-(6-(3-((4-(2-((S)-2,6-dioxopiperidin-3-yl)-1-oxoisoindolin-5-yl)piperazin-1-yl)methyl)pyrrolidin-1-yl)pyridin-3-yl)-1H-pyrazolo[3,4-d]pyrimidin-3-yl)benzyl)-5-fluoro-2-methoxybenzamide]	< 10	< 20	< 20
COc1ccc(F)cc1C(=O)NCc1ccc(-c2nn(-c3ccc(N4CC(CN5CCN(c6ccc7c(c6)CN([C@H]6CCC(=O)NC6=O)C7=O)CC5)C4)c(F)c3)c3ncnc(N)c23)cc1 [Compound 85, (S)—N-(4-(4-amino-1-(4-(3-((4-(2-(2,6-dioxopiperidin-3-yl)-1-oxoisoindolin-5-yl)piperazin-1-yl)methyl)azetidin-1-yl)-3-fluorophenyl)-1H-pyrazolo[3,4-d]pyrimidin-3-yl)benzyl)-5-fluoro-2-methoxybenzamide]	< 10	< 20	< 20
COc1ccc(F)cc1C(=O)NCc1ccc(-c2nn(-c3ccc(N4CC[C@H](CN5CCN(c6ccc7c(c6)CN([C@H]6CCC(=O)NC6=O)C7=O)CC5)C4)nc3)c3ncnc(N)c23)cc1 [Compound 93, N-(4-(4-amino-1-(6-((R)-3-((4-(2-((S)-2,6-dioxopiperidin-3-yl)-1-oxoisoindolin-5-yl)piperazin-1-yl)methyl)pyrrolidin-1-yl)pyridin-3-yl)-1H-pyrazolo[3,4-d]pyrimidin-3-yl)benzyl)-5-fluoro-2-methoxybenzamide]	< 10	< 20	< 20
COc1ccc(F)cc1C(=O)NCc1ccc(-c2nn(-c3ccc(N4CC[C@@H](CN5CCN(c6ccc7c(c6)CN([C@H]6CCC(=O)NC6=O)C7=O)CC5)C4)nc3)c3ncnc(N)c23)cc1 [Compound 94, N-(4-(4-amino-1-(6-((S)-3-((4-(2-((S)-2,6-dioxopiperidin-3-yl)-1-oxoisoindolin-5-yl)piperazin-1-yl)methyl)pyrrolidin-1-yl)pyridin-3-yl)-1H-pyrazolo[3,4-d]pyrimidin-3-yl)benzyl)-5-fluoro-2-methoxybenzamide]	< 10	< 20	< 20
COc1ccc(F)cc1C(=O)NCc1ccc(-c2nn(-c3ccc(N4CC[C@H](CN5CCN(c6ccc7c(c6)CN([C@H]6CCC(=O)NC6=O)C7=O)CC5)C4)c(F)c3)c3ncnc(N)c23)cc1 [Compound 95, N-(4-(4-amino-1-(4-((R)-3-((4-(2-((S)-2,6-dioxopiperidin-3-yl)-1-oxoisoindolin-5-yl)piperazin-1-yl)methyl)pyrrolidin-1-yl)-3-fluorophenyl)-1H-pyrazolo[3,4-d]pyrimidin-3-yl)benzyl)-5-fluoro-2-methoxybenzamide]	< 10	< 20	< 20
COc1ccc(F)cc1C(=O)NCc1ccc(-c2nn(-c3ccc(N4CC[C@@H](CN5CCN(c6ccc7c(c6)CN([C@H]6CCC(=O)NC6=O)C7=O)CC5)C4)c(F)c3)c3ncnc(N)c23)cc1 [Compound 96, N-(4-(4-amino-1-(4-((S)-3-((4-(2-((S)-2,6-dioxopiperidin-3-yl)-1-oxoisoindolin-5-yl)piperazin-1-yl)methyl)pyrrolidin-1-yl)-3-fluorophenyl)-1H-pyrazolo[3,4-d]pyrimidin-3-yl)benzyl)-5-fluoro-2-methoxybenzamide]	< 10	< 20	< 20
COc1ccc(F)cc1C(=O)NCc1ccc(-c2nn(-c3ccc(N4CC(CN5CCN(c6ccc7c(c6)CN([C@H]6CCC(=O)NC6=O)C7=O)CC5)C4)nc3)c3ncnc(N)c23)cc1 [Compound 97, (S)—N-(4-(4-amino-1-(6-(3-((4-(2-(2,6-dioxopiperidin-3-yl)-1-oxoisoindolin-5-yl)piperazin-1-yl)methyl)azetidin-1-yl)pyridin-3-yl)-1H-pyrazolo[3,4-d]pyrimidin-3-yl)benzyl)-5-fluoro-2-methoxybenzamide]	< 10	< 20	< 20
